# According to paper PMC8694051 (Proceedings of the National Academy of Sciences of the …, 2021):
# Residues, ends and D or L forms follow the SMILES beside them.
# Key:
# Caspase 14 = Caspase 14 (Homo sapiens, UniProt P31944); assay: Protease profiling panel, 10-dose IC50; format: biochemical
# HGFA = molecular target: T1, HGFA (Homo sapiens, UniProt Q04756); assay: HGFA enzyme inhibition (published assays); format: biochemical
# T1 sequence (Q04756 373-655): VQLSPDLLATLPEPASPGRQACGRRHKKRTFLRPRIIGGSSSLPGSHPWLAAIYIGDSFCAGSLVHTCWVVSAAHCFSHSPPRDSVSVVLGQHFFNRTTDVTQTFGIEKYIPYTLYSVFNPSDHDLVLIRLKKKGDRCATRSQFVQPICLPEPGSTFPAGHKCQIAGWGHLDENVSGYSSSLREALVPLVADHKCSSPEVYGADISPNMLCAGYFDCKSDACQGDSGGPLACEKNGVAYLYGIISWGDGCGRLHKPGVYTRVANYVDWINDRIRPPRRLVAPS
# Matriptase = molecular target: T2, Matriptase (Homo sapiens, UniProt Q9Y5Y6); assay: Matriptase enzyme inhibition (published assays); format: biochemical
# T2 sequence (Q9Y5Y6 1-855): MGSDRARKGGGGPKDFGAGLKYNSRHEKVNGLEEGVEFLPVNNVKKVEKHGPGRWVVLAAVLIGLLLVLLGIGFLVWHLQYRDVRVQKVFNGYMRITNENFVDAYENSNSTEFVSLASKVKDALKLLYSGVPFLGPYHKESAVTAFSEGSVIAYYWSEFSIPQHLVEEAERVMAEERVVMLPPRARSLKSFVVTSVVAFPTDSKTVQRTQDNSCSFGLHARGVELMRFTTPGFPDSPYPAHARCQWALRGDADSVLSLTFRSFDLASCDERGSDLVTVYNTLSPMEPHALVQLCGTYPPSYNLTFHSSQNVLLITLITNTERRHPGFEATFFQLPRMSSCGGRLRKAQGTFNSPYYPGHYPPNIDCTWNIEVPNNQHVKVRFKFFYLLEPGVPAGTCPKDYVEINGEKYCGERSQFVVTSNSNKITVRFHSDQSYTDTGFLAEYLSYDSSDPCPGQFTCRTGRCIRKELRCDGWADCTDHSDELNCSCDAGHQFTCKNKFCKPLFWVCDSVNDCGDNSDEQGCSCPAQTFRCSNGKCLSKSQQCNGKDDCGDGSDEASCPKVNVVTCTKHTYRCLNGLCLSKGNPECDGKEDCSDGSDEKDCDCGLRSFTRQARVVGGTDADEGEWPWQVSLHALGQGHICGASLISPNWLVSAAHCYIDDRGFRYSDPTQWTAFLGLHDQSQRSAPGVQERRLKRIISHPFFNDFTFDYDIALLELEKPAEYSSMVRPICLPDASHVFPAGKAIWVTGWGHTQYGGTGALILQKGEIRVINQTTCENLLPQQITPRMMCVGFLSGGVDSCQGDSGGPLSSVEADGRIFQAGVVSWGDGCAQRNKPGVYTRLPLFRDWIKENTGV
# Factor Xa = Factor Xa (Homo sapiens, UniProt P00742); assay: Factor Xa enzyme inhibition (published assays); format: biochemical
# [1] = tested on: VSV-SARS-CoV-2-Spike protein Pseudotype virus; assay: microbe, parasite or virus in culture; format: cell-based; settings: Vesicular stomatitis virus, Calu-3, read-out: VSV-SARS-CoV-2 Calu-3 EC50 (nM)
# VSV-MERS = assay: microbe, parasite or virus in culture; format: cell-based, MERS-CoV; settings: Middle East respiratory syndrome-related coronavirus, Calu-3, read-out: MERS VSV pseudotype Calu-3 EC50 (nM)
# FVIIa = FVIIa (Homo sapiens, UniProt P08709); assay: Protease profiling panel, 10-dose IC50; format: biochemical
# Thrombin = Thrombin (Homo sapiens, UniProt P00734); assay: Thrombin enzyme inhibition (published assays); format: biochemical
# wild-type SARS-CoV-2 = assay: microbe, parasite or virus in culture; format: cell-based; settings: Severe acute respiratory syndrome coronavirus 2, Calu-3, 72 h, read-out: SARS-CoV-2 Wild-type Calu-3 IC50 (nM)
# in vitro [2] = settings: mouse, plasma
# in vitro [3] = settings: human, plasma
# Cathepsin G = Cathepsin G (Homo sapiens, UniProt P08311); assay: Protease profiling panel, 10-dose IC50; format: biochemical
# Chymase = Chymase (Homo sapiens, UniProt P23946); assay: Protease profiling panel, 10-dose IC50; format: biochemical
# Sequence of Chymase (P23946 22-247, species assumed): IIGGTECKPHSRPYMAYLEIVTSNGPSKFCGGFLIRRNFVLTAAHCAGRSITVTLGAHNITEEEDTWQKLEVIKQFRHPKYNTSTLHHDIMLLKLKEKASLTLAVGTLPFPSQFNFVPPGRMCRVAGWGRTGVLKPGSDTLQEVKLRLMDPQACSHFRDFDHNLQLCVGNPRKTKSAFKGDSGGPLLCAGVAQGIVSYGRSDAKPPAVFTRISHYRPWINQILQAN
# Sequence of Factor Xa (P00742 235-488 limits assumed): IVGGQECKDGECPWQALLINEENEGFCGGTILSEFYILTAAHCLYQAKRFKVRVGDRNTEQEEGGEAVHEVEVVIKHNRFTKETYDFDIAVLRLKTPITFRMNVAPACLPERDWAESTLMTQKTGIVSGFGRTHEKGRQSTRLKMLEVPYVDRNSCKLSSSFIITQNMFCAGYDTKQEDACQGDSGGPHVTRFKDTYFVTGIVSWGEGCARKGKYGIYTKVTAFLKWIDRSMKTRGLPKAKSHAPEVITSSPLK
# Sequence of Factor Xa (P00742 41-179 partner limits assumed): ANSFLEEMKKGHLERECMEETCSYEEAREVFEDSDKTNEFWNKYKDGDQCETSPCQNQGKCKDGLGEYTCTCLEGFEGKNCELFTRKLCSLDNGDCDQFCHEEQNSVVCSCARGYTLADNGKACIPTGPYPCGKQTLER
# Sequence of Caspase 14 (P31944 6-242, species assumed): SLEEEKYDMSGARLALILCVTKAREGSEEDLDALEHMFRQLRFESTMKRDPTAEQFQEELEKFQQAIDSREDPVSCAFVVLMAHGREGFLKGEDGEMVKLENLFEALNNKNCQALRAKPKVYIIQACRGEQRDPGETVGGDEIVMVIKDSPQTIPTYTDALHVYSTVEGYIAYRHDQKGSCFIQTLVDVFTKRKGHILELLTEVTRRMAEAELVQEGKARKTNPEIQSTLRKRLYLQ
# Sequence of Cathepsin G (P08311 21-255, species assumed): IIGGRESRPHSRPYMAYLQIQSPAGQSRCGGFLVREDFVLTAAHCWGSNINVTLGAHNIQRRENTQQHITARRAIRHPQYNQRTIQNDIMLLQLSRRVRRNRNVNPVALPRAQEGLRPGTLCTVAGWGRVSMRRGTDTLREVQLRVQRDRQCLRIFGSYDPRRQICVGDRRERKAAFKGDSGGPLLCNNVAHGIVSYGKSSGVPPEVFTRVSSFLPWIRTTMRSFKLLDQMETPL
# Sequence of FVIIa (P08709 213-466 limits assumed): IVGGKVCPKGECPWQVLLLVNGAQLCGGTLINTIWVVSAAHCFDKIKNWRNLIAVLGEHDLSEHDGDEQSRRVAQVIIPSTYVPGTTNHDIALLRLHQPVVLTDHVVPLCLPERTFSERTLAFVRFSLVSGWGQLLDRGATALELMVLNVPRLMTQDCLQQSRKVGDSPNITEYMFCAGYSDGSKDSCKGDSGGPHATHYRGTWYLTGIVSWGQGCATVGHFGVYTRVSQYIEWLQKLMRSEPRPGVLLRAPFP
# Sequence of FVIIa (P08709 61-212 partner limits assumed): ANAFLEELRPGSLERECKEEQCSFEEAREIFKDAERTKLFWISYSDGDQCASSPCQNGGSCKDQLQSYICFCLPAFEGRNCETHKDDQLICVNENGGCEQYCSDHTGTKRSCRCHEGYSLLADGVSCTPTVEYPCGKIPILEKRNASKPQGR
compound,measurement,setting,value
CC(=O)N[C@@H](Cc1c[nH]c2ccccc12)C(=O)N[C@@H](CCC(=O)O)C(=O)N[C@@H](Cc1cnc[nH]1)C(=O)N[C@H](C=O)CC(=O)O [WEHD-CHO] (Ac-WEHD-aldehyde),IC50,Caspase 14,68.2 nM
"CN(C)C(=O)COC(=O)Cc1ccc(OC(=O)c2ccc(NC(=N)N)cc2)cc1 [Camostat, reference compound]",IC50,HGFA,> 20000 nM
same,IC50,Matriptase,7 nM
same,IC50,Factor Xa,> 20000 nM
same,EC50,[1],83 nM
same,EC50,VSV-MERS,5 nM
N=C(N)c1ccc2nc(-c3cc(CC(=O)N[C@@H](CC(=O)O)C(=O)O)cc(-c4cc(S(N)(=O)=O)ccc4O)c3O)[nH]c2c1 [PCI 27483],IC50,FVIIa,57.5 nM
"CC(=O)N[C@@H](CCC(N)=O)C(=O)N[C@@H](Cc1ccccc1)C(=O)N[C@@H](CCCNC(=N)N)C(=O)c1nc2ccccc2s1 [Compound 6, Ac-QFR-kbt]",IC50,HGFA,14 nM
same,IC50,Thrombin,> 20000 nM
same,IC50,Factor Xa,1.4 nM
same,IC50,wild-type SARS-CoV-2,105 nM
same,half-life,in vitro [2],> 4.82 h
same,half-life,in vitro [3],> 4.82 h
CC(C)C[C@H](NC(=O)[C@@H](NC(=O)N[C@@H](Cc1ccccc1)C(=O)O)[C@@H]1CCN=C(N)N1)C(=O)N[C@H](C=O)Cc1ccccc1 [Chymostatin],IC50,Cathepsin G,4040 nM
same,IC50,Chymase,10.1 nM
